Experimental data published in patent publication US20080025931A1, “Cosmetic method for limiting age-related hollowing of the face” (priority 2006, published 2008).
Blank lines part the entries; values can stand above or below the molecule they belong to.

Assays:
[1] = tested on: Normal human pre-adipocytes; test: Enrichment with lipids by AdipoRed staining and imaging (Spectramax reader); type: cell-based; details: differentiated cells, 25 ng/ml
Experimental: (§1) Normal human pre-adipocytes were cultured in PGM growth medium at 37° C. and 5% CO2 until confluent. At confluence (D0), the cells were placed in differentiation medium (series 1, differentiated cells) or normal growth medium (series 2, undifferentiated cells), containing or not containing (control) the test products or the reference (TNFα, differentiation inhibitor). The cells were then incubated at 37° C. and 5% CO2 for 4 days.
Monitoring of the Enrichment with Lipids by Specific Staining (AdipoRed™) and Imaging
At the end of the treatments, the cells were rinsed in PBS and then the intracellular lipids were stained with AdipoRed from BioWhittaker. The stained cells were observed by optical microscopy, with the Spectramax reader.
(§2) The results are expressed as % increase relative to the control.

[2] = tested on: LPL (lipoprotein lipase); test: Stimulation of adipocyte differentiation: expression of LPL marker by RT-Q-PCR in pre-adipocytes; type: cell-based, human; details: 25 ng/ml; 4 days; control differentiated cells = 100
Experimental: The activity of a Vitreoscilla filiformis cell extract as prepared according to Example 1 on a local adipose development was evaluated. The study was carried out on human adipocytes obtained from the abdominal region. Various parameters representing the adipocyte physiology were analysed: • a) stimulation of lipogenesis by measurement of the incorporation of ^14C-acetate into lipids; • b) stimulation of adipocyte differentiation by measuring the expression of adipocyte differentiation markers: LPL (lipoprotein lipase, involved in the storage of fat; • c) monitoring of the enrichment in lipids by specific staining (AdipoRed™) and imaging; • d) monitoring of the cell size/size distribution by flow cytometry and fluorescent labelling (AdipoRed™). […]
At the end of the treatment, the supernatants were removed and the cells rinsed in PBS and a volume of 300 μl of Tri-Reagent was added to each well. The expression of the LPL marker was evaluated by RT-Q-PCR on messenger RNAs extracted from the cellular lawns of each treatment. […]
The incorporation of fluorescence into the amplified DNA was measured continuously during the PCR cycles. A relative expression value was evaluated for the LPL marker, expressed in arbitrary units according to the following formula: (½^number of cycles)×10^6
The results are expressed as % relative expression compared with the control.

[3] = tested on: Normal human pre-adipocytes; test: Cell size/size distribution by flow cytometry and AdipoRed fluorescent labelling; type: cell-based; details: differentiated cells; 25 ng/ml
Experimental: as §1
Monitoring of the Cell Size/Size Distribution by Flow Cytometry and AdipoRed™ Fluorescent Labelling
At the end of the treatments, the cells were rinsed in PBS and then the intracellular lipids were stained with AdipoRed from BioWhittaker.
At the end of the incubation, the cells were rinsed, trypsinized and then analysed by flow cytometry. The differentiation of the pre-adipocytes manifested itself at the morphological level by an increase in the number of intracytoplasmic lipid vesicles and an increase in the size of the cells.
as §2

[4] = tested on: human adipocytes obtained from the abdominal region; test: Stimulation of lipogenesis by measuring the incorporation of 14C-acetate into the lipids; type: cell-based; details: for % control (incorporation of 14C-acetate into lipids): 1 h preincubation, 4 h treatment
Experimental: The activity of a Vitreoscilla filiformis cell extract as prepared according to Example 1 on a local adipose development was evaluated. The study was carried out on human adipocytes obtained from the abdominal region. Various parameters representing the adipocyte physiology were analysed: • a) stimulation of lipogenesis by measurement of the incorporation of ^14C-acetate into lipids; • b) stimulation of adipocyte differentiation by measuring the expression of adipocyte differentiation markers: LPL (lipoprotein lipase, involved in the storage of fat; • c) monitoring of the enrichment in lipids by specific staining (AdipoRed™) and imaging; • d) monitoring of the cell size/size distribution by flow cytometry and fluorescent labelling (AdipoRed™). Stimulation of Lipogenesis by Measuring the Incorporation of ^14C-acetate into the Lipids The adipocytes were isolated after an abdominal plastic surgery operation and then incubated in the presence of collagenase and then washed and taken up in test medium. This test medium contained: • product to be tested (Vitreoscilla filiformis extract at various concentrations/theophylline 1 mM/isoproterenol 1 μM), or nothing for the control • bicarbonate 1.87 mg/ml • penicillin/streptomycin 25 IU/ml/25 μg/ml • glutamine 2 mM • MEM without phenol red qs 100% (v/v) supplemented with lipid-free bovine serum albumin at 0.5% (w/v). The products to be tested and the adipocytes were preincubated at 37° C. for 1 h, and then ^14C-acetate was added at 50 μCi/ml. After 4 h of treatment, the lipids were extracted with methanol/chloroform/water and the incorporated radioactivity was counted by liquid scintillation.

LPL, % relative expression compared with the control [2]: 111%
Molecule: TNFα
lipid level (in words) [1]: reduced the lipid level
% control (intracellular lipids, AdipoRed, Spectramax) ([1]; 4 days): 83 % control
% control (AdipoRed measurement, flow cytometry) [3]: 80 % control

Molecule: CC(C)NCC(O)c1ccc(O)c(O)c1 (stereo not shown) [Isoproterenol]
% control (incorporation of 14C-acetate into lipids) ([4]; 1 μM): 3400 % control

Molecule: C/C=C/C/C=C/CCC(=O)[C@H]1O[C@H]1C(N)=O [Cerulenin]
% control (incorporation of 14C-acetate into lipids) ([4]; 20 μM): 34 % control
incorporation of acetate into lipids (in words) ([4]; tested at 0.02 mM): significantly inhibited
